According to patent publication US9757363B2, “SNS-595 and methods of using the same” (Sunesis Pharmaceuticals, Inc., priority 2004, dated 2017):
Like-named read-outs stand apart in the source and are kept apart here.

Experiment: Pharmacokinetics of SNS-595 in cancer patients
Type: in vivo, human
Settings: for AUC(0-t) / AUC(0-inf) / MRT inf / Cmax: human, intravenous
Description: SNS-595 was administered to enrolled patients for up to six cycles. A cycle is defined as a three-week period, with SNS-595 administered on the first day of each cycle (day 0), followed by at least 21 days of observation. SNS-595 was administered to cohorts of at least 3 patients and dose escalation occurred by sequential cohort.

[1] = 48 mg/m2, plasma, dose 48 mg/m^2
[2] = 60 mg/m2, plasma, dose 60 mg/m^2

relation of dose to AUC^oo (dose escalation by sequential cohort): linear | AUC(0-t) (3 mg/m2, plasma, dose 3 mg/m^2): 750 ng·h/mL | AUC(0-t) (6 mg/m2, plasma, dose 6 mg/m^2): 2400 ng·h/mL | AUC(0-inf) (6 mg/m2, plasma, dose 6 mg/m^2, read-out: AUCINF_obs): 2990 ng·h/mL | MRT inf (6 mg/m2, plasma, dose 6 mg/m^2, read-out: MRTINF_obs): 29.1 h | AUC(0-t) (12 mg/m2, plasma, dose 12 mg/m^2): 5400 ng·h/mL | MRT inf (12 mg/m2, plasma, dose 12 mg/m^2, read-out: MRTINF_obs): 23.7 h | AUC(0-t) (24 mg/m2, plasma, dose 24 mg/m^2): 11100 ng·h/mL | MRT inf (24 mg/m2, plasma, dose 24 mg/m^2, read-out: MRTINF_obs): 21.6 h | AUC(0-t) [1]: 21100 ng·h/mL | Cmax [1]: 2870 ng/mL | AUC(0-inf) (48 mg/m2, plasma, dose 48 mg/m^2, read-out: AUCINF_obs): 27300 ng·h/mL | MRT inf (48 mg/m2, plasma, dose 48 mg/m^2, read-out: MRTINF_obs): 28.9 h | AUC(0-t) [2]: 28100 ng·h/mL | Cmax [2]: 4540 ng/mL | AUC(0-inf) (60 mg/m2, plasma, dose 60 mg/m^2, read-out: AUCINF_obs): 33600 ng·h/mL | MRT inf (60 mg/m2, plasma, dose 60 mg/m^2, read-out: MRTINF_obs): 23.7 h | CO (plasma, dose 3 mg/m^2): 152.25 ng/mL | CO (plasma, dose 6 mg/m^2): 379.69 ng/mL | CO (plasma, dose 12 mg/m^2): 2888.66 ng/mL | CO (plasma, dose 24 mg/m^2): 2924.46 ng/mL | CO (plasma, dose 48 mg/m^2): 1984.52 ng/mL | Vss_obs (plasma, dose 48 mg/m^2): 1.46 L/kg | CO (plasma, dose 60 mg/m^2): 4797.47 ng/mL
SMILES: CN[C@H]1CN(c2ccc3c(=O)c(C(=O)O)cn(-c4nccs4)c3n2)C[C@@H]1OC [SNS-595, (+)-1,4-dihydro-7-[(3S,4S)-3-methoxy-4-(methylamino)-1-pyrrolidinyl]-4-oxo-1-(2-thiazoyl)-1,8-naphthyridine-3-carboxylic acid]
